Reference: the kinase profiling compilation of Christmann-Franck et al. (2016)
One block for each compound: values may come before it.

Columns and labels:
Experiment in all cases: radiometric filter-binding kinase assay
EPHB2 (human) = EPHB2 (human) (UniProt P29323)
MARK3 (human) = MARK3 (human) (UniProt P27448)
NTRK1 (human) = NTRK1 (human) (UniProt P04629)
MAPK14 (human) = MAPK14 (human) (UniProt Q16539)
MAP2K1 (human) = MAP2K1 (human) (UniProt Q02750)
[1] = biological target: STK11 CAB39 STRADA (human) (UniProt Q9Y376+Q7RTN6+Q15831)
MKNK2 (human) = MKNK2 (human) (UniProt Q9HBH9)
MAPK9 (human) = MAPK9 (human) (UniProt P45984)
DYRK1A (human) = DYRK1A (human) (UniProt Q13627)
RPS6KA1 KD1 KD2 (human) = RPS6KA1 KD1 KD2 (human) (UniProt Q15418)
NEK2 (human) = NEK2 (human) (UniProt P51955)
MARK2 (human) = MARK2 (human) (UniProt Q7KZI7)
IKBKB (human) = IKBKB (human) (UniProt O14920)
DYRK3 (human) = DYRK3 (human) (UniProt O43781)
MARK1 (human) = MARK1 (human) (UniProt Q9P0L2)
PIM1 (human) = PIM1 (human) (UniProt P11309)
JAK2 JH1 JH2 (human) = JAK2 JH1 JH2 (human) (UniProt O60674)
CaMK1 (human) = CaMK1 (human) (UniProt Q14012)
STK3 (human) = STK3 (human) (UniProt Q13188)
NUAK1 (human) = NUAK1 (human) (UniProt O60285)
PAK4 (human) = PAK4 (human) (UniProt O96013)
IKBKE (human) = IKBKE (human) (UniProt Q14164)
MAPK3 (human) = MAPK3 (human) (UniProt P27361)
TTK (human) = TTK (human) (UniProt P33981)
CSNK1D (human) = CSNK1D (human) (UniProt P48730)
MKNK1 (human) = MKNK1 (human) (UniProt Q9BUB5)
MAP3K11 (human) = MAP3K11 (human) (UniProt Q16584)
IRAK4 (human) = IRAK4 (human) (UniProt Q9NWZ3)
NEK6 (human) = NEK6 (human) (UniProt Q9HC98)
MAPK8 (human) = MAPK8 (human) (UniProt P45983)
MAPKAPK2 (human) = MAPKAPK2 (human) (UniProt P49137)
TBK1 (human) = TBK1 (human) (UniProt Q9UHD2)
[2] = system: AKT1 (human), P31749 [S473D]
CHEK2 (human) = CHEK2 (human) (UniProt O96017)
[3] = system: RPS6KB1 (human), P23443 [T412E]

Sequence of STK3 (human) (Q13188 whole entry, looked up): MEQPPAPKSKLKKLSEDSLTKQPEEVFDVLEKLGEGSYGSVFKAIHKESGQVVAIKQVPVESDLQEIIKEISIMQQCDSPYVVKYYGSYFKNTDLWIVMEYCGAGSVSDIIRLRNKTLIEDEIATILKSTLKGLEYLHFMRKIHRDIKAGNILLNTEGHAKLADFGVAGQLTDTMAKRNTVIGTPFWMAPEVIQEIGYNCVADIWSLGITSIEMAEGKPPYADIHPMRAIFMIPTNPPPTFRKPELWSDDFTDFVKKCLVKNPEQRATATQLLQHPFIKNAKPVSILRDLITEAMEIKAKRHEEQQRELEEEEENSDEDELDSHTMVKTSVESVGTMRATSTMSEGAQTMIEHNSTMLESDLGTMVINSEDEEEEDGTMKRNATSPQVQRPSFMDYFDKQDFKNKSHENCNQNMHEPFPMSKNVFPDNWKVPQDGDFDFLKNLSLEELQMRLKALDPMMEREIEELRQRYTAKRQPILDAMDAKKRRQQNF
Sequence of STK11 CAB39 STRADA (human) (Q15831 whole entry, looked up): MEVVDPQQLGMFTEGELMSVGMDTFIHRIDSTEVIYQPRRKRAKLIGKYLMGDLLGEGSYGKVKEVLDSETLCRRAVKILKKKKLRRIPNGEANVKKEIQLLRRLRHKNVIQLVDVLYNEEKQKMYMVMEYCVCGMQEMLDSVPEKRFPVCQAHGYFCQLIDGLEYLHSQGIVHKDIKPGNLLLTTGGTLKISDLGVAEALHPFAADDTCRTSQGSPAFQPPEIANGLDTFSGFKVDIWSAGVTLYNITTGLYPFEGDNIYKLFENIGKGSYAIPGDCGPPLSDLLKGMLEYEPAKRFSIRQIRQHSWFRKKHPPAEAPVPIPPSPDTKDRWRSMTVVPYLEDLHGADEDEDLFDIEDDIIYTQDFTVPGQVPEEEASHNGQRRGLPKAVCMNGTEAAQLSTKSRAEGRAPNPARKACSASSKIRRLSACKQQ
Sequence of STK11 CAB39 STRADA (human) (Q7RTN6 whole entry, looked up): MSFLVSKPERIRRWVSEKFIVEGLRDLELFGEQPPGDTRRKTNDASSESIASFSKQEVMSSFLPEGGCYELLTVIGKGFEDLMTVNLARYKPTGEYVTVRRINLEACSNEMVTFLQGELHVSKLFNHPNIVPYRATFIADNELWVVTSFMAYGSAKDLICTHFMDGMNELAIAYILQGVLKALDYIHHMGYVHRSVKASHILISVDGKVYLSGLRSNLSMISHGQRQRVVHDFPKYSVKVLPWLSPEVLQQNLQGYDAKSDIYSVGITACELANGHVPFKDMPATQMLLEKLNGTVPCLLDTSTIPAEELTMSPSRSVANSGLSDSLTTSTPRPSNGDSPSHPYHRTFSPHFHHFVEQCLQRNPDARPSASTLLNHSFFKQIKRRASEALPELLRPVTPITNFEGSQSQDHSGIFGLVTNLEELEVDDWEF
Sequence of STK11 CAB39 STRADA (human) (Q9Y376 whole entry, looked up): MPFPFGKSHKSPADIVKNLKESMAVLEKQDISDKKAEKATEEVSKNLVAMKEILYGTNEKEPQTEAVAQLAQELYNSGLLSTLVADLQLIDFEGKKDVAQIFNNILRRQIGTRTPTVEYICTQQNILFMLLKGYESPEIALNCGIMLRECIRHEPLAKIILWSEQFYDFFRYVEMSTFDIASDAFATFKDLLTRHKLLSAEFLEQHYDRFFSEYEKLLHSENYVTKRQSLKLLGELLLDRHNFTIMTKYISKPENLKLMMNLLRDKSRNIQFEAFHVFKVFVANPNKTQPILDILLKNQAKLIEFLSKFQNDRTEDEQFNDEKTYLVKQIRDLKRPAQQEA
Sequence of RPS6KA1 KD1 KD2 (human) (Q15418 whole entry, looked up): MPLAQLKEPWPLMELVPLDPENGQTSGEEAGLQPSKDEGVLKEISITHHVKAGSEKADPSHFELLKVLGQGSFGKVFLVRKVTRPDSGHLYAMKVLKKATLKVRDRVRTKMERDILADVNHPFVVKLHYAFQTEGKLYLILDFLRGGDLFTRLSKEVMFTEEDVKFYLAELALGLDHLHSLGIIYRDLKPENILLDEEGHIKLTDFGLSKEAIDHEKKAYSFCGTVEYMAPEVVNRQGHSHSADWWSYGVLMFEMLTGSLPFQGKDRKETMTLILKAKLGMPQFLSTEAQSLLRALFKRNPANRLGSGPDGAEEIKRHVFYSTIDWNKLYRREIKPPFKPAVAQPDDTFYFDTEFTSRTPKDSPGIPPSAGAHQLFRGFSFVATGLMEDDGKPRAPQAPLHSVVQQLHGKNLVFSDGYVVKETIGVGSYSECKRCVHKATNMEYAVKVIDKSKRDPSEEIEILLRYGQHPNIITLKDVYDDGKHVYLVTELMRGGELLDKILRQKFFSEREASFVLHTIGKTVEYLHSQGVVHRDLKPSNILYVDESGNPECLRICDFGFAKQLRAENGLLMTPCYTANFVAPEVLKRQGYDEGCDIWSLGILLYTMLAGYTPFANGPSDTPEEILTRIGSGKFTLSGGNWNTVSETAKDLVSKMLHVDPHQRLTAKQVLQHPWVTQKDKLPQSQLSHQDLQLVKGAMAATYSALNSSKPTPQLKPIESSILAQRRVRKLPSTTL
Sequence of MARK3 (human) (P27448 whole entry, looked up): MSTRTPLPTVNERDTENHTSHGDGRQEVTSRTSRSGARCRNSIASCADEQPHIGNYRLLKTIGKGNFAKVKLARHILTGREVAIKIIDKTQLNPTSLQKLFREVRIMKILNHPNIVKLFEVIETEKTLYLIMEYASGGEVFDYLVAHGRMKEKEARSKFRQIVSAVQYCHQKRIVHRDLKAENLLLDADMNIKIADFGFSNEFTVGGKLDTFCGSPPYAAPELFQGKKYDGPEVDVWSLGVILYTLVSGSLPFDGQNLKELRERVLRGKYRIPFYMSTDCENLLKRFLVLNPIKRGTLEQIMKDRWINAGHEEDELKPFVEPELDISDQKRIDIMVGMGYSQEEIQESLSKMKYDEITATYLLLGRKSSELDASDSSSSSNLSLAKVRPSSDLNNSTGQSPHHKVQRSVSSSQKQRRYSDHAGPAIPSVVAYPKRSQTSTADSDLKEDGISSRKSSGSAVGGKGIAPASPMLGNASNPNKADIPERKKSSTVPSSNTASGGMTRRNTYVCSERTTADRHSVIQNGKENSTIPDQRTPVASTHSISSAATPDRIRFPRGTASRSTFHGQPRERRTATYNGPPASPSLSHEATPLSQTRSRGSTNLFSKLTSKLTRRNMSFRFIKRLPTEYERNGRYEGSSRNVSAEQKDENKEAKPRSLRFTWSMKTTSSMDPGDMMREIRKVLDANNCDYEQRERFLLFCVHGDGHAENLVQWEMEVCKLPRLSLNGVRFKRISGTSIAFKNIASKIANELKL
Sequence of NEK6 (human) (Q9HC98 whole entry, looked up): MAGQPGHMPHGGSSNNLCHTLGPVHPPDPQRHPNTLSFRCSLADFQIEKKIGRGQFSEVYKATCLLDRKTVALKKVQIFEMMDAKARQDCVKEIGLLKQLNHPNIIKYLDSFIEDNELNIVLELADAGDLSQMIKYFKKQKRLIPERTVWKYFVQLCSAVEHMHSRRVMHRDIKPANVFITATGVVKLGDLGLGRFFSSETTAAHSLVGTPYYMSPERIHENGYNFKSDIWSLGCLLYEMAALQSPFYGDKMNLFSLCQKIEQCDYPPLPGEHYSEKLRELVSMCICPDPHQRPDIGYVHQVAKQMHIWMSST
Sequence of PAK4 (human) (O96013 whole entry, looked up): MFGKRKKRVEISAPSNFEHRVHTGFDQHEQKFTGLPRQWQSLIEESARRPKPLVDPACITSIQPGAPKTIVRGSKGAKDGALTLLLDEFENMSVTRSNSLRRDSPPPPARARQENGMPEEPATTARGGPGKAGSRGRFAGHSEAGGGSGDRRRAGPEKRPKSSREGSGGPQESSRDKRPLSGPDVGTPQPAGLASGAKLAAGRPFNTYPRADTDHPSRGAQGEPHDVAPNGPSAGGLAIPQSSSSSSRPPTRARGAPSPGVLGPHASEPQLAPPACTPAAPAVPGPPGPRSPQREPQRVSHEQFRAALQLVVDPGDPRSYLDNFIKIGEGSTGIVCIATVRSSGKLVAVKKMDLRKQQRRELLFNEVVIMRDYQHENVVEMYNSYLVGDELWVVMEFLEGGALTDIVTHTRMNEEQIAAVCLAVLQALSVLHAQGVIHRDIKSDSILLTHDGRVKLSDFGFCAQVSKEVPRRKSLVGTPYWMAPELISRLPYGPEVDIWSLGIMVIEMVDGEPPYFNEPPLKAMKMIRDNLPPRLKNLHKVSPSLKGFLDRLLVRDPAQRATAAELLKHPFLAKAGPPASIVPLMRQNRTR
Sequence of MAP2K1 (human) (Q02750 whole entry, looked up): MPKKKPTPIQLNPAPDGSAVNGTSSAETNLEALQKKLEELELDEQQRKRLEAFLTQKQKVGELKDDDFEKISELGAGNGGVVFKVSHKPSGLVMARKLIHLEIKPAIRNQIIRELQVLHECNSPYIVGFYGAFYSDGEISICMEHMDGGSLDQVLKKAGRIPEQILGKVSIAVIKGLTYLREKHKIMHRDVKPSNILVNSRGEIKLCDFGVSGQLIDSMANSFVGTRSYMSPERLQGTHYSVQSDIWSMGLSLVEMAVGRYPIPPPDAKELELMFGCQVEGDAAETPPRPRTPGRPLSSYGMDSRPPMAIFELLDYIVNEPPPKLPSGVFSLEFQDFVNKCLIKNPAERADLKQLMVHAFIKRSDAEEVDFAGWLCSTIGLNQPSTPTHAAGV
Sequence of MAPK14 (human) (Q16539 whole entry, looked up): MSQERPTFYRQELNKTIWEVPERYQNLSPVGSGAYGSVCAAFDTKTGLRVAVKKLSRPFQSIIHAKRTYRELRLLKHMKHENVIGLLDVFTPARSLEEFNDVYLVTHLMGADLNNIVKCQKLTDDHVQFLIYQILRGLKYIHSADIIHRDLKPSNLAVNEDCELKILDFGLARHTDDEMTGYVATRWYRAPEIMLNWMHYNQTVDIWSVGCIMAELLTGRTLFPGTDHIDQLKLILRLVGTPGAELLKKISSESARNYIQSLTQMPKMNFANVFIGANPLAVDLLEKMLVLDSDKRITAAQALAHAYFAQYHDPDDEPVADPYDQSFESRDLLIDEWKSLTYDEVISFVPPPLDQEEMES

residual activity (EPHB2 (human); compound 0.1 µM): 101%
residual activity (EPHB2 (human); compound 1.0 µM): 97%
residual activity (MARK3 (human); compound 0.1 µM): 92%
residual activity (MARK3 (human); compound 1.0 µM): 93%
residual activity (NTRK1 (human); compound 1.0 µM): 92%
residual activity (MAPK14 (human); compound 0.1 µM): 105%
residual activity (MAPK14 (human); compound 1.0 µM): 110%
residual activity (MAP2K1 (human); compound 0.1 µM): 107%
residual activity (MAP2K1 (human); compound 1.0 µM): 96%
residual activity ([1]; compound 0.1 µM): 106%
residual activity ([1]; compound 1.0 µM): 95%
residual activity (MKNK2 (human); compound 0.1 µM): 84%
residual activity (MKNK2 (human); compound 1.0 µM): 67%
residual activity (MAPK9 (human); compound 1.0 µM): 17%
residual activity (DYRK1A (human); compound 0.1 µM): 98%
residual activity (DYRK1A (human); compound 1.0 µM): 84%
residual activity (RPS6KA1 KD1 KD2 (human); compound 0.1 µM): 89%
residual activity (RPS6KA1 KD1 KD2 (human); compound 1.0 µM): 81%
residual activity (NEK2 (human); compound 0.1 µM): 105%
residual activity (NEK2 (human); compound 1.0 µM): 100%
residual activity (MARK2 (human); compound 0.1 µM): 99%
residual activity (MARK2 (human); compound 1.0 µM): 85%
residual activity (IKBKB (human); compound 0.1 µM): 62%
residual activity (IKBKB (human); compound 1.0 µM): 74%
residual activity (DYRK3 (human); compound 0.1 µM): 94%
residual activity (DYRK3 (human); compound 1.0 µM): 80%
residual activity (MARK1 (human); compound 0.1 µM): 114%
residual activity (PIM1 (human); compound 0.1 µM): 104%
residual activity (PIM1 (human); compound 1.0 µM): 89%
residual activity (JAK2 JH1 JH2 (human); compound 0.1 µM): 100%
residual activity (JAK2 JH1 JH2 (human); compound 1.0 µM): 94%
residual activity (CaMK1 (human); compound 0.1 µM): 92%
residual activity (CaMK1 (human); compound 1.0 µM): 86%
residual activity (STK3 (human); compound 1.0 µM): 72%
residual activity (NUAK1 (human); compound 0.1 µM): 79%
residual activity (NUAK1 (human); compound 1.0 µM): 49%
residual activity (PAK4 (human); compound 1.0 µM): 78%
residual activity (IKBKE (human); compound 0.1 µM): 92%
residual activity (IKBKE (human); compound 1.0 µM): 94%
residual activity (MAPK3 (human); compound 0.1 µM): 103%
residual activity (MAPK3 (human); compound 1.0 µM): 99%
residual activity (TTK (human); compound 0.1 µM): 85%
residual activity (TTK (human); compound 1.0 µM): 65%
residual activity (CSNK1D (human); compound 0.1 µM): 89%
residual activity (CSNK1D (human); compound 1.0 µM): 57%
residual activity (MKNK1 (human); compound 1.0 µM): 88%
residual activity (MAP3K11 (human); compound 0.1 µM): 95%
residual activity (MAP3K11 (human); compound 1.0 µM): 94%
residual activity (IRAK4 (human); compound 1.0 µM): 86%
residual activity (NEK6 (human); compound 0.1 µM): 95%
residual activity (NEK6 (human); compound 1.0 µM): 87%
residual activity (MAPK8 (human); compound 0.1 µM): 13%
residual activity (MAPK8 (human); compound 1.0 µM): 6%
residual activity (MAPKAPK2 (human); compound 0.1 µM): 102%
residual activity (MAPKAPK2 (human); compound 1.0 µM): 100%
residual activity (TBK1 (human); compound 1.0 µM): 106%
residual activity ([2]; compound 0.1 µM): 102%
residual activity ([2]; compound 1.0 µM): 98%
residual activity (CHEK2 (human); compound 0.1 µM): 102%
residual activity (CHEK2 (human); compound 1.0 µM): 72%
residual activity ([3]; compound 0.1 µM): 98%
residual activity ([3]; compound 1.0 µM): 93%
SMILES: Cc1cc(NC(=O)c2cccc(NC(=O)/C=C/CN(C)C)c2)ccc1Nc1nccc(-c2cccnc2)n1

residual activity (EPHB2 (human); compound 0.01 µM): 108%
residual activity (EPHB2 (human); compound 0.1 µM): 89%
residual activity (EPHB2 (human); compound 1.0 µM): 34%
residual activity (MARK3 (human); compound 0.01 µM): 7%
residual activity (MARK3 (human); compound 0.1 µM): 3%
residual activity (MARK3 (human); compound 1.0 µM): 2%
residual activity (NTRK1 (human); compound 0.01 µM): 5%
residual activity (NTRK1 (human); compound 0.1 µM): 3%
residual activity (NTRK1 (human); compound 1.0 µM): 2%
residual activity (MAPK14 (human); compound 0.01 µM): 106%
residual activity (MAPK14 (human); compound 0.1 µM): 109%
residual activity (MAPK14 (human); compound 1.0 µM): 105%
residual activity (MAP2K1 (human); compound 0.01 µM): 9%
residual activity (MAP2K1 (human); compound 0.1 µM): 0%
residual activity (MAP2K1 (human); compound 1.0 µM): 0%
residual activity ([1]; compound 0.01 µM): 103%
residual activity ([1]; compound 0.1 µM): 50%
residual activity ([1]; compound 1.0 µM): 35%
residual activity (MKNK2 (human); compound 0.01 µM): 93%
residual activity (MKNK2 (human); compound 0.1 µM): 12%
residual activity (MKNK2 (human); compound 1.0 µM): 10%
residual activity (MAPK9 (human); compound 0.01 µM): 101%
residual activity (MAPK9 (human); compound 0.1 µM): 98%
residual activity (MAPK9 (human); compound 1.0 µM): 4%
residual activity (DYRK1A (human); compound 0.01 µM): 29%
residual activity (DYRK1A (human); compound 0.1 µM): 8%
residual activity (DYRK1A (human); compound 1.0 µM): 3%
residual activity (RPS6KA1 KD1 KD2 (human); compound 0.01 µM): 9%
residual activity (RPS6KA1 KD1 KD2 (human); compound 0.1 µM): 3%
residual activity (RPS6KA1 KD1 KD2 (human); compound 1.0 µM): 1%
residual activity (NEK2 (human); compound 0.01 µM): 105%
residual activity (NEK2 (human); compound 0.1 µM): 105%
residual activity (NEK2 (human); compound 1.0 µM): 66%
residual activity (MARK2 (human); compound 0.01 µM): 11%
residual activity (MARK2 (human); compound 0.1 µM): 5%
residual activity (MARK2 (human); compound 1.0 µM): 4%
residual activity (IKBKB (human); compound 0.01 µM): 75%
residual activity (IKBKB (human); compound 0.1 µM): 24%
residual activity (IKBKB (human); compound 1.0 µM): 6%
residual activity (DYRK3 (human); compound 0.01 µM): 24%
residual activity (DYRK3 (human); compound 0.1 µM): 4%
residual activity (DYRK3 (human); compound 1.0 µM): 2%
residual activity (MARK1 (human); compound 0.01 µM): 11%
residual activity (MARK1 (human); compound 0.1 µM): 5%
residual activity (MARK1 (human); compound 1.0 µM): 5%
residual activity (PIM1 (human); compound 0.01 µM): 71%
residual activity (PIM1 (human); compound 0.1 µM): 16%
residual activity (PIM1 (human); compound 1.0 µM): 1%
residual activity (JAK2 JH1 JH2 (human); compound 0.01 µM): 10%
residual activity (JAK2 JH1 JH2 (human); compound 0.1 µM): 12%
residual activity (JAK2 JH1 JH2 (human); compound 1.0 µM): 7%
residual activity (CaMK1 (human); compound 0.01 µM): 97%
residual activity (CaMK1 (human); compound 0.1 µM): 25%
residual activity (CaMK1 (human); compound 1.0 µM): 4%
residual activity (STK3 (human); compound 0.01 µM): 18%
residual activity (STK3 (human); compound 0.1 µM): 16%
residual activity (STK3 (human); compound 1.0 µM): 9%
residual activity (NUAK1 (human); compound 0.01 µM): 2%
residual activity (NUAK1 (human); compound 0.1 µM): 2%
residual activity (NUAK1 (human); compound 1.0 µM): 1%
residual activity (PAK4 (human); compound 0.01 µM): 25%
residual activity (PAK4 (human); compound 0.1 µM): 7%
residual activity (PAK4 (human); compound 1.0 µM): 7%
residual activity (IKBKE (human); compound 0.01 µM): 6%
residual activity (IKBKE (human); compound 0.1 µM): 1%
residual activity (IKBKE (human); compound 1.0 µM): 2%
residual activity (MAPK3 (human); compound 0.1 µM): 4%
residual activity (MAPK3 (human); compound 1.0 µM): 2%
residual activity (TTK (human); compound 0.01 µM): 37%
residual activity (TTK (human); compound 0.1 µM): 13%
residual activity (TTK (human); compound 1.0 µM): 7%
residual activity (CSNK1D (human); compound 0.01 µM): 109%
residual activity (CSNK1D (human); compound 0.1 µM): 107%
residual activity (CSNK1D (human); compound 1.0 µM): 96%
residual activity (MKNK1 (human); compound 0.01 µM): 61%
residual activity (MKNK1 (human); compound 0.1 µM): 16%
residual activity (MKNK1 (human); compound 1.0 µM): 9%
residual activity (MAP3K11 (human); compound 0.01 µM): 17%
residual activity (MAP3K11 (human); compound 0.1 µM): 5%
residual activity (MAP3K11 (human); compound 1.0 µM): 3%
residual activity (IRAK4 (human); compound 0.01 µM): 7%
residual activity (IRAK4 (human); compound 0.1 µM): 7%
residual activity (IRAK4 (human); compound 1.0 µM): 4%
residual activity (NEK6 (human); compound 0.01 µM): 87%
residual activity (NEK6 (human); compound 0.1 µM): 89%
residual activity (NEK6 (human); compound 1.0 µM): 72%
residual activity (MAPK8 (human); compound 0.01 µM): 91%
residual activity (MAPK8 (human); compound 0.1 µM): 4%
residual activity (MAPK8 (human); compound 1.0 µM): 1%
residual activity (MAPKAPK2 (human); compound 0.01 µM): 19%
residual activity (MAPKAPK2 (human); compound 0.1 µM): 0%
residual activity (MAPKAPK2 (human); compound 1.0 µM): -1%
residual activity (TBK1 (human); compound 0.01 µM): 22%
residual activity (TBK1 (human); compound 0.1 µM): 16%
residual activity (TBK1 (human); compound 1.0 µM): 12%
residual activity ([2]; compound 0.01 µM): 93%
residual activity ([2]; compound 0.1 µM): 44%
residual activity ([2]; compound 1.0 µM): 5%
residual activity (CHEK2 (human); compound 0.01 µM): 24%
residual activity (CHEK2 (human); compound 0.1 µM): 5%
residual activity (CHEK2 (human); compound 1.0 µM): 2%
residual activity ([3]; compound 0.01 µM): 37%
residual activity ([3]; compound 0.1 µM): 6%
residual activity ([3]; compound 1.0 µM): 3%
SMILES: CNC(=O)C1[C@H]2O[C@@](C)([C@@H]1N)n1c3ccccc3c3c4c(c5c6ccccc6n2c5c31)C(=O)NC4 (stereo partly specified)
